Assay [1] deals with T1, full-length HAQ STING (Homo sapiens, UniProt Q86WV6, G230A/H232R/R293Q/R71H).
T1 construct: AviTag (after GG linker) (C); HRV3C cleavage site (after GS linker) (C); HIS8 (C); made in house; host or cells: Trichoplusia ni (Hi-Five) insect cells infected with baculovirus (virus generated and amplified in Sf21 cells); used as a washed membrane preparation
Description: 3H-cGAMP filtration binding assay (HAQ STING). To be noted: competition with tritiated cGAMP, HAQ STING membrane. In outline: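 Hi-Five (T. ni) membranes overexpressing the STING variant (2.2 ug/ml working) preincubated with compound 60 min at RT in PBS, then [3H]cGAMP (8 nM working stock) added for 60 min at RT. Bound radioactivity captured on GF/B filters and counted by scintillation; EC50 from 4-parameter fit of control-normalized activity.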

For assay [2], the target named is T2, full-length WT STING (Homo sapiens, UniProt Q86WV6, H232R).
T2 construct: AviTag (after gg linker) (C); HRV3C cleavage site (after gs linker) (C); HIS8 (C); made in house; host or cells: Trichoplusia ni (Hi-Five) insect cells infected with baculovirus (virus generated and amplified in Sf21 cells); used as a washed membrane preparation
T2 sequence (Q86WV6 with tags, fused parts or gaps H232R): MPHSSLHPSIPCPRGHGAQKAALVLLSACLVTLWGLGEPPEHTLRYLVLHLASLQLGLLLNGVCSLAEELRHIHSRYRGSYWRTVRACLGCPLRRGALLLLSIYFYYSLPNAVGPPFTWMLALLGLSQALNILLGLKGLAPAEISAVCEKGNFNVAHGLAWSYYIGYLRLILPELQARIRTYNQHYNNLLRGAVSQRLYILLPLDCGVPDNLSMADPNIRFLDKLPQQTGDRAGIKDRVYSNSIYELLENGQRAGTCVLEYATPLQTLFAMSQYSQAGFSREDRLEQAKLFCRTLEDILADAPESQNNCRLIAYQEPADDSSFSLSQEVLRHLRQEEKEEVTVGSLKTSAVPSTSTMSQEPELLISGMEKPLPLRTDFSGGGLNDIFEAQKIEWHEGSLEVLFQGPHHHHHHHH
Put plainly: 3H-cGAMP filtration binding assay (WT STING). To be noted: for EC50: competition with tritiated cGAMP, WT STING membrane. In a few lines: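 Competitive filtration binding of [3H]cGAMP (16 nM working stock) to T. ni membranes overexpressing full-length WT human STING, 60 min at RT in PBS. Bound radioactivity counted after GF/B filtration; 10-point 1:3 titration, EC50 from 4-parameter fit after control normalisation.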

In assay [3] the test system is secretion of interferon-beta from THP1 cells. Description: IFN-β secretion in THP1 cell culture (5 h). It is filed as cell-based. To be noted: Homo sapiens, THP-1, 5 h, 30 uM cGAMP = 100%; for activation at 30 µM: compound at 30 μM, read-out: % Effect at 30 μM relative to 2′3′-cGAMP; for activation at 3 µM: compound at 3 uM, read-out: % Effect relative to 2′3′-cGAMP (@ 3 uM). In outline:
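Thawed THP1 cells (0.8×10^6/mL, RPMI with 0.5% FBS) exposed to compounds 1.5–30000 nM (0.3% DMSO) for 5 h at 37 °C. Supernatant IFN-β quantified by AlphaLISA. Percent effect normalised to 30 uM cGAMP and DMSO controls; EC50 from 4-parameter fit.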

T1 sequence (Q86WV6 with tags, fused parts or gaps R71H/G230A/H232R/R293Q): as the sequence (Q86WV6 with tags, fused parts or gaps H232R) above, with R71H, G230A, R293Q counted along it

Take `COc1cc2sc(C(=O)CCC(=O)O)cc2c(F)c1OCCCCCOc1c(OC)cc2sc(C(=O)C[C@H](C)C(=O)O)cc2c1F` [Example 118]: the EC50 in assay [1] is 60 nM; in assay [2], 5000 nM. Also, the activation at 30 µM in assay [3] came out at 117%.
On to `COc1cc2sc(C(=O)C[C@H](C)C(=O)O)cc2c(F)c1OCCCCCOc1c(OC)cc2sc(C(=O)C[C@H](C)C(=O)O)cc2c1F` [Example 120, (2S,2′S)-4,4′-(5,5′-(pentane-1,5-diylbis(oxy))bis(4-fluoro-6-methoxybenzo[b]thiophene-5,2-diyl))bis(2-methyl-4-oxobutanoic acid)], for which the EC50 in assay [1] stood at 38 nM; in assay [2], 698 nM. Also, in assay [3], the activation at 3 µM was determined as 45%.
Regarding `COc1cc2sc(C(=O)C[C@H](C)C(=O)O)cc2c(F)c1OCCCCCOc1c(OC)cc2sc(C(=O)[C@@H]3CC[C@H]3C(=O)O)cc2c1F` [Example 121, trans-2-(5-((5-((2-((S)-3-carboxybutanoyl)-4-fluoro-6-methoxybenzo[b]thiophen-5-yl)oxy)pentyl)oxy)-4-fluoro-6-methoxybenzo[b]thiophene-2-carbonyl)cyclobutane carboxylic acid], the EC50 in assay [1] came out at 1550 nM. In addition, the inhibition at 20 µM in assay [2] (at 20,000 nM compound) was determined as 43%. Also, the activation at 30 µM in assay [3] was 26%.
Consider `COc1cc2sc(C(=O)C[C@H](C)C(=O)O)cc2c(F)c1OCCCOc1c(OC)cc2sc(C(=O)C[C@H](C)C(=O)O)cc2c1Cl` [Example 122, (S)-4-(5-(3-((2-((S)-3-carboxybutanoyl)-4-chloro-6-methoxybenzo[b]thiophen-5-yl)oxy)propoxy)-4-fluoro-6-methoxybenzo[b]thiophen-2-yl)-2-methyl-4-oxobutanoic acid], for which the EC50 in assay [1] and in assay [2] was 1 nM each time. Further, the activation at 30 µM in assay [3] came out at 79%.
Take `COc1cc2sc(C(=O)C[C@H](C)C(=O)O)cc2c(F)c1OCCCOc1c(OC)cc2sc(C(=O)C[C@H](C)C(=O)O)cc2c1Br` [Example 123, (S)-4-(5-(3-((4-bromo-2-((S)-3-carboxybutanoyl)-6-methoxybenzo[b]thiophen-5-yl)oxy)propoxy)-4-fluoro-6-methoxybenzo[b]thiophen-2-yl)-2-methyl-4-oxobutanoic acid]: the EC50 in assay [1] stood at 1 nM; in assay [2], 2 nM. Further, in assay [3], the activation at 30 µM was 105%.
As for `COc1cc2sc(CC[C@H](C)C(=O)O)cc2c(F)c1OCCCCOc1c(OC)cc2sc(C(=O)C[C@H](C)C(=O)O)cc2c1F` [Example 124, (S)-4-(5-(4-((2-((S)-3-carboxybutyl)-4-fluoro-6-methoxybenzo[b]thiophen-5-yl)oxy)butoxy)-4-fluoro-6-methoxybenzo[b]thiophen-2-yl)-2-methyl-4-oxobutanoic acid], the EC50 in assay [1] was 263 nM; in assay [2], 3060 nM. In addition, the activation at 3 µM in assay [3] came out at 45%.
`COc1cc2cc(C(=O)CCC(=O)O)sc2cc1OCCCOc1c(OC)cc2sc(C(=O)CCC(=O)O)cc2c1F` [Example 125, 4-(6-(3-((2-(3-carboxypropanoyl)-4-fluoro-6-methoxybenzo[b]thiophen-5-yl)oxy)propoxy)-5-methoxybenzo[b]thiophen-2-yl)-4-oxobutanoic acid]: the EC50 in assay [1] turned out to be 1 nM; in assay [2] it was 5 nM. Also, in assay [3], the activation at 30 µM is 156%.
The corresponding values for `COc1cc2sc(C(=O)CCC(=O)O)cc2cc1OCCCOc1cc2sc(C(=O)CCC(=O)O)cc2cc1OC` [Example 126, 4-(5-(3-((2-(3-carboxypropanoyl)-5-methoxybenzo[b]thiophen-6-yl)oxy)propoxy)-6-methoxybenzo[b]thiophen-2-yl)-4-oxobutanoic acid] are 2 nM, 19 nM and 91%.
For the compound `COc1cc2cc(C(=O)CCC(=O)O)sc2cc1OCCCOc1cc2sc(C(=O)CCC(=O)O)cc2cc1OC` [Example 127, 4,4′-(6,6′-(propane-1,3-diylbis(oxy))bis(5-methoxybenzo[b]thiophene-6,2-diyl))bis(4-oxobutanoic acid)], the figures for the 50% effective concentration (EC50) in assay [1] and in assay [2] were 16 nM and 270 nM, respectively. For the same compound, the activation at 30 µM in assay [3] is 120%.
The corresponding values for `COc1cc2sc(C(=O)CCC(=O)O)cc2cc1CCCOc1cc2sc(C(=O)CCC(=O)O)cc2cc1OC` [Example 128, 4-(5-(3-((2-(3-carboxypropanoyl)-5-methoxybenzo[b]thiophen-6-yl)oxy)propyl)-6-methoxybenzo[b]thiophen-2-yl)-4-oxobutanoic acid] are 1080 nM, 6310 nM and 83%.
On the same counts, the results for `COc1cc2cc(C(=O)CCC(=O)O)sc2cc1OCCCc1cc2cc(C(=O)CCC(=O)O)sc2cc1C` [Example 129, 4-(5-(3-((2-(3-carboxypropanoyl)-5-methoxybenzo[b]thiophen-6-yl)oxy)propyl)-6-methylbenzo[b]thiophen-2-yl)-4-oxobutanoic acid] are 3500 nM, 17100 nM and 50%.
The corresponding values for `COc1cc2sc(C(=O)C[C@H](C)C(=O)O)cc2c(F)c1OCCCCOc1c(OC)cc2sc(C(=O)C[C@H](C)C(=O)O)cc2c1Cl` [Example 130, (S)-4-(5-(4-((2-((S)-3-carboxybutanoyl)-4-chloro-6-methoxybenzo[b]thiophen-5-yl)oxy)butoxy)-4-fluoro-6-methoxybenzo[b]thiophen-2-yl)-2-methyl-4-oxobutanoic acid] are 3 nM, 25 nM and 61%.
As for `COc1cc2sc(C(=O)C[C@H](C)C(=O)O)cc2c(F)c1OCCCCOc1c(OC)cc2sc(C(=O)C[C@H](C)C(=O)O)cc2c1Br` [Example 131, (S)-4-(5-(4-((4-bromo-2-((S)-3-carboxybutanoyl)-6-methoxybenzo[b]thiophen-5-yl)oxy)butoxy)-4-fluoro-6-methoxybenzo[b]thiophen-2-yl)-2-methyl-4-oxobutanoic acid], the results for the EC50 in assay [1] and in assay [2] were 25 nM and 242 nM, respectively. Further, the activation at 3 µM in assay [3] was 38%.
With `COc1cc2sc(C(=O)C[C@H](C)C(=O)O)cc2c(Cl)c1OCCCOc1c(OC)cc2sc(C(=O)C[C@H](C)C(=O)O)cc2c1Cl` [Example 132, (2S,2′S)-4,4′-(5,5′-(propane-1,3-diylbis(oxy))bis(4-chloro-6-methoxybenzo[b]thiophene-5,2-diyl))bis(2-methyl-4-oxobutanoic acid)], the EC50 in assay [1] is 3 nM; in assay [2], 10 nM. In assay [3], the activation at 30 µM came to 131%.
Take `COc1cc2sc(C(=O)C[C@H](C)C(=O)O)cc2c(Cl)c1OCCCOc1c(OC)cc2sc(C(=O)C[C@H](C)C(=O)O)cc2c1Br` [Example 133, (S)-4-(5-(3-((4-bromo-2-((S)-3-carboxybutanoyl)-6-methoxybenzo[b]thiophen-5-yl)oxy)propoxy)-4-chloro-6-methoxybenzo[b]thiophen-2-yl)-2-methyl-4-oxobutanoic acid]: the EC50 was found to be 15 nM in assay [1] and 147 nM in assay [2]. Also, the activation at 30 µM in assay [3] was found to be 80%.
The corresponding values for `COc1cc2sc(C(=O)C[C@H](C)C(=O)O)cc2c(Br)c1OCCCOc1c(OC)cc2sc(C(=O)C[C@H](C)C(=O)O)cc2c1Br` [Example 134, (2S,2′S)-4,4′-(5,5′-(propane-1,3-diylbis(oxy))bis(4-bromo-6-methoxybenzo[b]thiophene-5,2-diyl))bis(2-methyl-4-oxobutanoic acid)] are 22 nM, 233 nM and 89%.
